Test [1] deals with caco-2 colon human cancer cell line. The test is described as follows: Annexin-V apoptotic assay by flow cytometry. It counts as cell-based. The note with it: caco-2, under similar conditions, concentration not given. On the procedure: The cell death status was analysed using Annexin-V (Annexin-V apoptotic assay (Yunqing Li, FadilaGuessous, SherwinKwon, Manish Kumar. PTEN Has Tumor-Promoting Properties in the Setting of Gain-of-Function p53 Mutations, 2008 Cancer Res; 68: (6) (2008).) Flow cytometery. The experiment was performed using caco-2 colon human cancer cell line. Cells were seeded in 6 well plates at the concentration of 2×10^5 cells/ml/well. Plates were incubated in CO2 incubator for overnight. After overnight incubation test sample(s) were added at desired concentration, sparing wells for negative and positive control and incubated for 48 hrs. After 48 hr incubation, cell were trypsinized and separately transferred into 15 ml centrifuge tubes. Tubes were centrifuged at 3000 rpm for 5 min. The supernatant was discarded and pellet was resuspended in 1 ml filtered PBS and centrifuged at 2000 rpm for 5 min. After 5 mins supernatant was discarded and pellet was resuspended in […] of 1× binding buffer to make cell suspension. From this suspension, 100 μl of cells is transferred in falcon tube and then 10 μl of propidium iodide (PI) and 5 μl Annexin-V antibody were added and incubated for 30 min in dark. After 30 min incubation in dark, apoptosis were analysed by flow cytometer (BD Biosciences).
Overall, there was a concentration dependent net increase in late apoptotic cell population (FIG. 7).
Background: Flow cytometry measures light scatter and fluorescence of single cells or particles in a stream.

Test [2] relates to caco-2, colon human cancer cell line. The test is described as follows: Cell cycle analysis by flow cytometry (propidium iodide). Type of test: cell-based. The following applies: caco-2, under similar conditions, concentration not given. On the procedure: Analysis (Cell cycle (Waxman D J, Schwartz P S, Harnessing apoptosis for improved anti-cancer gene therapy, Cancer Res. 63:8563-8572(2003).) of a population of cells replication state can be achieved by fluorescence labeling of the nuclei of cells in suspension and then analyzing the fluorescence properties of each cell in the population. The experiment was performed using caco-2, colon human cancer cell line. Cells were seeded in 6 well plates at the concentration of 3×10^5 cells/ml/well. Plate was incubated in CO2 incubator for overnight. After overnight incubation test sample(s) were added at desired concentration, sparing wells for negative and positive control and incubated for 24 hrs. After 24 hr incubation, cell were trypsinized along with test sample from each well was extracted using a micropippete and separately transferred into 15 ml centrifuge tubes. Tubes were centrifuged at 3000 rpm for 5 min. […] Reading was taken on flow cytometer (BD Biosciences).
Results: Cell cycle is the life cycle of a cell. […] In the present study, the effect of compound E on the DNA content by cell cycle phase distribution was assessed by using colon (caco-2) cell line. […] Cells (2×10^6/ml/6-well plate), exposed to different concentrations of compound E were stained with propidium iodide (PI) to determine DNA fluorescence and cell cycle phase distribution. […]

The subject of test [3] is pAkt (Ser 473) in CACO-2 cells. The test is described as follows: Immunofluorescence microscopic analysis of pAKT (serine 473). It counts as cell-based, human. The note with it: 4 μM, 24 hr. On the procedure:
For immunofluorescence microscopic analysis, 4×10^4 CACO-2 cells/ml were seeded on 18-mm coverslips in 6-well plates, one day before experiment. […] Following treatment, cells were washed in PBS, followed by fixation in absolute methanol at −20° C. for 5 min^19. The fixed cells were blocked with 10% goat serum in PBS for 20 min at room temperature to eliminate non-specific binding of secondary antibody. Cells were incubated with polyclonal rabbit pAKT (serine 473) primary antibody (1:100 in 0.5% BSA in PBS; Santa Cruz Biotechnology) for 1 h at 25° C. in moist chamber, then washed and incubated with secondary antibody. The cells were washed and incubated for 45 min with a Texas red-conjugated goat antirabbit antibody (1:500 in 0.5% BSA in PBS; Santa Cruz Biotechnology) at 25° C. The coverslips were mounted on glass slides with 4′,6-diamidino-2-phenylindole-containing ProLong Gold Antifade mounting medium (Invitrogen) and visualized by fluorescence microscope (Olympus, IX81) under an Olympus 60× oil immersion objective lens. The negative controls were also used in which incubation of cells with primary antibody was omitted.
Results: Phosphorylation (activation) of Akt is associated with protection of cells from apoptosis^20 (K. Nicholson, N. Anderson. 2002. The protein kinase B/Akt signaling pathway in human malignancy. Cell signal 14: 381-395). […]

A further test has as its target PI3Kα (Homo sapiens (Human), UniProt P42336). The test is described as follows: PI3K inhibition assay (PI3 Kinase activity/inhibitor assay kit), PI3Kα. It counts as biochemical. The note with it: read-out: IC50 against PI3Kα.
A further test deals with PI3Kβ (Homo sapiens (Human), UniProt P42338). The test is described as follows: PI3K inhibition assay (PI3 Kinase activity/inhibitor assay kit), PI3Kβ. Type of test: biochemical. How it is done: PI3K inhibition assay (PI3K Assay (Emmanuelle M, Huang […] et al. Targeting Protein Translation in Human Non-Small Cell Lung Cancer via Combined MEK and Mammalian Target of Rapamycin Suppression. Cancer Res 67:(23). (2007).) was carried out by PI3 Kinase activity/inhibitor assay kit, where PI3 kinase reaction was set up in Glutathione-coated strips/plate for inhibitor reaction. Kinase and inhibitors were pre-incubated for 10 minutes prior to the addition of PIP2 substrate. 5 μL of 5× kinase reaction buffer were added in each well followed by the further addition of 5 μL/well of PIP2 substrate. Then distilled H2O was added to each well so as to make up a final volume of 25 μL/well. Incubation was done at rt for 1 hour which was followed by washing the wells 3 times with 200 μL of 1×TBST per well and then 2 times with 200 μL of IX TBS per well. Then 100 μL of the Substrate TMB per well was added and then to keep for colour development in the dark for 5-20 minutes. However, appearance of the blue color to avoid over-development were monitored. 100 μL of the stop solution per well was used to stop the reaction. Readings were recorded at 450 nm. The IC50 value of a drug measures the effectiveness of a compound in inhibiting biological or biochemical function. […]

In the next test the test system is human cancer cell lines. The test is described as follows: In vitro cell line based anticancer activity, human cancer cell lines. The following applies: 10 μM. The source says:
(§1) The MTT assay (MTT Assay (Legrier M E, Yang C P, Yan H G et al. Targeting protein translation in human non small lung cancer via combined MEK and mammalian target of rapamycin suppression. Cancer Res 67:11300-8(2007).) is useful for measuring the effect of a wide range of compounds on the in vitro growth of either normal or cancer cell lines. The assay was set up in a 96-well, flat-bottomed polystyrene microtiter plate. 3-5000 cells were suspended per well in appropriate growth medium, and the cells were added to replicate wells (triplicates were preferred). It was preferable to add the cells to the required number of wells in the plate prior to adding the drugs or the test agents. After the cells were added to the plate, it was placed on the incubator for overnight incubation, while the agents to be tested were being prepared. After overnight incubation drugs or test compounds were added at defined concentrations to each set of replicate wells and incubated for 48 hrs in CO2 incubator. Most of these compounds were dissolved in dimethyl sulfoxide (DMSO) for the final addition. After 48 hr incubation, diluted the MTT stock solution ([…]) with an equal volume of tissue culture medium and added 20 μl of this solution directly to each well with a multichannel pipette. […] A standard micro plate reader with adjustable wavelength across the visible spectrum was used. […]

A further test deals with caco-2. The test is described as follows: MTT cytotoxic assay, colon (caco-2) cell line. Details: species or system human. The following applies: 48 h, read-out: cell based IC50 (MTT).
Excerpt: as §1
(In general: Tetrazolium dyes change colour on reduction, which living cells bring about.)

The target of another test is PI3K γ (Homo sapiens (Human), UniProt P48736). The test is described as follows: PI3K inhibition assay, PI3K γ isoform. It counts as biochemical. On the procedure:
(§2) PI3K inhibition assay (PI3K Assay (Emmanuelle M, Huang Y, Yan H G et al. Targeting Protein Translation in Human Non-Small Cell Lung Cancer via Combined MEK and Mammalian Target of Rapamycin Suppression. Cancer Res 67:(23). (2007).) was carried out by PI3 Kinase activity/inhibitor assay kit, where PI3 kinase reaction was set up in Glutathione-coated strips/plate for inhibitor reaction. Kinase and inhibitors were pre-incubated for 10 minutes prior to the addition of PIP2 substrate. 5 μL of 5× kinase reaction buffer were added in each well followed by the further addition of 5 μL/well of PIP2 substrate. Then distilled H2O was added to each well so as to make up a final volume of 25 μL/well. Incubation was done at rt for 1 hour which was followed by washing the wells 3 times with 200 μL of 1×TBST per well and then 2 times with 200 μL of IX TBS per well. Then 100 μL of the Substrate TMB per well was added and then to keep for colour development in the dark for 5-20 minutes. However, appearance of the blue color to avoid over-development were monitored. 100 μL of the stop solution per well was used to stop the reaction. Readings were recorded at 450 nm.

A further test addresses PI3K δ (Homo sapiens (Human), UniProt O00329). The test is described as follows: PI3K inhibition assay, PI3K δ isoform. Type of test: biochemical. On the procedure: as §2

Read-outs that look alike come from different tables or passages of the source. A value given as a limit tells only on which side of the number the result lay.

PI3Kβ, sequence (P42338 whole entry): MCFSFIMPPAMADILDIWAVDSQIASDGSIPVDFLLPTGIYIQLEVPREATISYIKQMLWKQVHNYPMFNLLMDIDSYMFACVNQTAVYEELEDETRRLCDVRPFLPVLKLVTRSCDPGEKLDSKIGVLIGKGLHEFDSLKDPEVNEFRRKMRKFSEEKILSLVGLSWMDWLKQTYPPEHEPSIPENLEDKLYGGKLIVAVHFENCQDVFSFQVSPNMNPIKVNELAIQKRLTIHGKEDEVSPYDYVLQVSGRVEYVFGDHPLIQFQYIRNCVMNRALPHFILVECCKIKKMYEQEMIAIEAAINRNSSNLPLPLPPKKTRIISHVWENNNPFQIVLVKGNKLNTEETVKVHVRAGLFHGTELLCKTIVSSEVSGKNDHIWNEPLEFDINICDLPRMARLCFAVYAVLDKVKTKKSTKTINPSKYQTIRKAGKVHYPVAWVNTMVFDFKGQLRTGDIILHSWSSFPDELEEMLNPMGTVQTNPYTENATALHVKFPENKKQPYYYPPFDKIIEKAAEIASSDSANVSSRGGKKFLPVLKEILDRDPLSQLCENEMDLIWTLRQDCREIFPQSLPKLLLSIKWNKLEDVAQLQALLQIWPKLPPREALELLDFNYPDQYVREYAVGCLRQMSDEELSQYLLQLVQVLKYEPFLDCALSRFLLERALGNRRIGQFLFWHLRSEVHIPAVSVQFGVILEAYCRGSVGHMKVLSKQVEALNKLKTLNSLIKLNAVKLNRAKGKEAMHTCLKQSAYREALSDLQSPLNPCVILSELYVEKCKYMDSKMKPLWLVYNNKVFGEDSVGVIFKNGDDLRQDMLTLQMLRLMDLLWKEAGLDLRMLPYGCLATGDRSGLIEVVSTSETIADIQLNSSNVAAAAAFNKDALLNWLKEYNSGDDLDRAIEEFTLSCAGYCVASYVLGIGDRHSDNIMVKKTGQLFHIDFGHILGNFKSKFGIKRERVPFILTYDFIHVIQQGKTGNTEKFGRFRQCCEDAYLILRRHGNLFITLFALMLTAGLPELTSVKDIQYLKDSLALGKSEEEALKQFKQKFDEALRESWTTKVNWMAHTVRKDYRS
PI3Kβ, sequence (P27986 whole entry partner): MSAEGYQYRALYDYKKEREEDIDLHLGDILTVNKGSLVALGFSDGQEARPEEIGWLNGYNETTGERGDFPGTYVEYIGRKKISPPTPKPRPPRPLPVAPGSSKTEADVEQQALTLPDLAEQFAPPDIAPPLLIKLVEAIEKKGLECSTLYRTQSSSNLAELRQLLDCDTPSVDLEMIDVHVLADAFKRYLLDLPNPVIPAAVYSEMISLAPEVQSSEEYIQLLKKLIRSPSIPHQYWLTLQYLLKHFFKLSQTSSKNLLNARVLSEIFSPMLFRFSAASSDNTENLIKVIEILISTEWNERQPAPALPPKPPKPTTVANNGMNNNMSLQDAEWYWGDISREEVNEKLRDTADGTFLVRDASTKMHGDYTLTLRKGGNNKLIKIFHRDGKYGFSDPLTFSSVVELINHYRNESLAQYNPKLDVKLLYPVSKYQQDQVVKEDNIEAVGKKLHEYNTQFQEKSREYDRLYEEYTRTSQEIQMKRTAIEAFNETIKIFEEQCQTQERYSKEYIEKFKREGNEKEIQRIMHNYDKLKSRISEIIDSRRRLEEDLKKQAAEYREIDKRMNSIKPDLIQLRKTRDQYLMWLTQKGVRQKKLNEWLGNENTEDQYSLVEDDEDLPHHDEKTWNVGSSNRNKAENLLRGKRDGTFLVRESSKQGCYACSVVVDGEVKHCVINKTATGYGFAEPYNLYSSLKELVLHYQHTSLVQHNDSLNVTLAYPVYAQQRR
PI3Kα, sequence (P42336 whole entry, looked up): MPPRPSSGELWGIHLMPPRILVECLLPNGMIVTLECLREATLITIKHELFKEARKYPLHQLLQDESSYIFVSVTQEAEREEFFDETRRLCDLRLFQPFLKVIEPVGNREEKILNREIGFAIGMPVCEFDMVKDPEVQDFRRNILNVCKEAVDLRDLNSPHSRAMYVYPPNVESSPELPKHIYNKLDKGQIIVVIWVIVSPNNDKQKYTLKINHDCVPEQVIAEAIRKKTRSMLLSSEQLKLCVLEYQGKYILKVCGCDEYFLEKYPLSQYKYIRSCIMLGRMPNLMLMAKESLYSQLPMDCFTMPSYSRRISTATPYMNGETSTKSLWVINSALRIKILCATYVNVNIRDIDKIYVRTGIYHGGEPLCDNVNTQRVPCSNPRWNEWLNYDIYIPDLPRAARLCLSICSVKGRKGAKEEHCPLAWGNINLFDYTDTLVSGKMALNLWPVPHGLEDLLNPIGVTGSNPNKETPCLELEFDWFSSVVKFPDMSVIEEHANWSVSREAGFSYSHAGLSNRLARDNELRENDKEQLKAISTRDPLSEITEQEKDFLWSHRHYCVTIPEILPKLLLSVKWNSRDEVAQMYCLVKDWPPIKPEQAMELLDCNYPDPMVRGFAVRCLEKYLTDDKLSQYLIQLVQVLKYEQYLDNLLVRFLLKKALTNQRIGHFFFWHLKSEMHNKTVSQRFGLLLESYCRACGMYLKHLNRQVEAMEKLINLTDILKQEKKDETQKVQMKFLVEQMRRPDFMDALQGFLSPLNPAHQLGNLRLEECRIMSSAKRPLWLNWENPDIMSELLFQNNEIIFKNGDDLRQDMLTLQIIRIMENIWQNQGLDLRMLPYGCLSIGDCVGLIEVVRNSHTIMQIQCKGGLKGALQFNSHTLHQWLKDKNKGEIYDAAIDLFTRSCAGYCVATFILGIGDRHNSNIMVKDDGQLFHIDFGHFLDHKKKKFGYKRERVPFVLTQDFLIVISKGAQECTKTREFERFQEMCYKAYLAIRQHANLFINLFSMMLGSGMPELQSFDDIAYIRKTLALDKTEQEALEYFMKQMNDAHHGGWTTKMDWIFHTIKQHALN
PI3Kα, sequence (P27986 whole entry partner, looked up): as the sequence (P27986 whole entry partner) above
PI3K δ, sequence (O00329 whole entry, canonical isoform): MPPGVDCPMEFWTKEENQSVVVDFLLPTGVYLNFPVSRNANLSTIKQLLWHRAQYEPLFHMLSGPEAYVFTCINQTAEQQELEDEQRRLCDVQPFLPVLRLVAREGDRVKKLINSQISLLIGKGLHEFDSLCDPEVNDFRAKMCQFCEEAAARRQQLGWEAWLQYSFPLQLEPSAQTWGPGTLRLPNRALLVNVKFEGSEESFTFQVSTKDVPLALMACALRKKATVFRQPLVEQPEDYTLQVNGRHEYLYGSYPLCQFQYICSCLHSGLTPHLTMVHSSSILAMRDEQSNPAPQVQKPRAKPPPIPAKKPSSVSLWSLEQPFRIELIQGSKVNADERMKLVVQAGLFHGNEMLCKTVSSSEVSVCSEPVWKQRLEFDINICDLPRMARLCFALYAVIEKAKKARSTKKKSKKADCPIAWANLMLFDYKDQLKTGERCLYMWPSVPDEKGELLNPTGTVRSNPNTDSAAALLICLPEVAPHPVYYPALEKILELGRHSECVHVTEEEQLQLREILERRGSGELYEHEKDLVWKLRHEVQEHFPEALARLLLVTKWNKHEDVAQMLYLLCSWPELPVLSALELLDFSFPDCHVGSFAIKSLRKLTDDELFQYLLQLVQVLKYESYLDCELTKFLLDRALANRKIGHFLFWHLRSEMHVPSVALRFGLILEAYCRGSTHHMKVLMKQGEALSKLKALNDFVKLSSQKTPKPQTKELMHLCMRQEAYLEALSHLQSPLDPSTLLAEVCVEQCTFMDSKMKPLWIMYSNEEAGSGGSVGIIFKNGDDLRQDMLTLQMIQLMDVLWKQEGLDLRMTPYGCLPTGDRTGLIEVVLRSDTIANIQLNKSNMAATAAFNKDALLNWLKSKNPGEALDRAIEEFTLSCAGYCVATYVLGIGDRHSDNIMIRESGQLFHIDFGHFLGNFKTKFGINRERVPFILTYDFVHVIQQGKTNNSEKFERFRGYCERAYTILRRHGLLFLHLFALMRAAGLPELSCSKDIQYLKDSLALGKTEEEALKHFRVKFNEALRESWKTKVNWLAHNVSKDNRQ
PI3K δ, sequence (P27986 whole entry partner, canonical isoform): as the sequence (P27986 whole entry partner) above
PI3K γ, sequence (P48736 whole entry, canonical isoform): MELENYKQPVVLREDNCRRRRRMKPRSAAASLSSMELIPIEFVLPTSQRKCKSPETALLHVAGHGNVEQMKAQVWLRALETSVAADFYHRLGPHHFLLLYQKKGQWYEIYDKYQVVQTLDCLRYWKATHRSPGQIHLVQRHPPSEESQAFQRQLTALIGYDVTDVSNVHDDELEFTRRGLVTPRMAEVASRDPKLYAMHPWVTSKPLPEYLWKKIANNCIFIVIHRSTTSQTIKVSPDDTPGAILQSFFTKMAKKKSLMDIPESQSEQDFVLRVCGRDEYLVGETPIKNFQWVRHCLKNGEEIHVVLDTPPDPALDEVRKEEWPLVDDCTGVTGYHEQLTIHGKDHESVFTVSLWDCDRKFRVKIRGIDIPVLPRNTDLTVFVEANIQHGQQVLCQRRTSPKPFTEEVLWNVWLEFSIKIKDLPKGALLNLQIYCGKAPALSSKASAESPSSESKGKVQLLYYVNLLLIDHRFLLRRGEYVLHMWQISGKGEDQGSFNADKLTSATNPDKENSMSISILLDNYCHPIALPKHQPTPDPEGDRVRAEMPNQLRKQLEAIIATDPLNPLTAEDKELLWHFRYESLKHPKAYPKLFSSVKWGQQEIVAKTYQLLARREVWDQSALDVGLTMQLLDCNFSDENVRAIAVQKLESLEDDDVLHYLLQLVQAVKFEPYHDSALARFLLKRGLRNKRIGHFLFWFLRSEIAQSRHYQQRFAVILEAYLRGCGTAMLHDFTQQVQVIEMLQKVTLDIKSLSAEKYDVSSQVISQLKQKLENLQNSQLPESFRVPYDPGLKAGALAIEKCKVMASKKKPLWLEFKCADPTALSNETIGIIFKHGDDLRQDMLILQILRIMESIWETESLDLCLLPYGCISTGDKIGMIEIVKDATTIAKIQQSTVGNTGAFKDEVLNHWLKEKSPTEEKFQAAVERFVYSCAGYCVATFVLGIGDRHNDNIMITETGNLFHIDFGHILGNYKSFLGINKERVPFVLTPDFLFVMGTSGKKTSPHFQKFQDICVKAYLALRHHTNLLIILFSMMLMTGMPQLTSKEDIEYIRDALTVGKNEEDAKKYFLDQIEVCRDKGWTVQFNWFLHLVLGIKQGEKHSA

Regarding Liphagal, the “percentage of cells in late apoptotic phase” value in test [1] was 42.7%. Further, in [2], the “percentage of cells in sub-G0 phase” value came to 64.9%. Also, the “effect on pAkt (Ser 473)” value in test [3] was “inhibition of pAKT”.

On to `C=C(CC/C=C(\C)CCC=C(C)C)c1cc2cc(OC)c(OC)cc2o1` [Compound A], for which the figures for the IC50 at PI3Kα, on PI3Kβ (read-out: IC50 against PI3Kβ) and with caco-2 were 140 nM, 100 nM and 2400 nM, respectively. In the test with human cancer cell lines, this molecule came in with an optimal growth inhibition above 74%.

As to `CC1(C)CCCC2(C)c3c(oc4c(B(O)O)c(O)c(O)cc34)CCC12` (centres unmarked) [Compound AZ], the IC50 (commonly the concentration needed to halve the response being measured) at PI3Kα amounted to 23 nM; at PI3Kβ (read-out: PI3K (IC50) β), 5700 nM; against PI3K γ, 85.4 µM; against PI3K δ it was 303 µM.

The values are drawn from patent publication US9206201B2, “Boronic acid bearing liphagane compounds as inhibitors of P13K-α and/or β” (COUNCIL OF SCIENTIFIC & INDUSTRIAL RESEARCH, priority 2012, dated 2015).
